Test results from patent US5965743A, “N-substituted imidazol derivative” (Nippon Soda Co., Ltd., priority 1994, dated 1999).
Where two headings read alike, the source gives them in different places.

Key:
[1] = tested on: Triton WR-1339-Induced Hyperlipemia Mice; assay: Effect on serum lipid in Triton WR-1339-induced hyperlipemia mice; format: in vivo, mouse (Crj:ICR-strain); conditions: Mus musculus, po (3 x 33.3 mg/kg), average of 10 animals, 24 hours
Experimental: For this test, Crj:ICR-strain male mice aged 7-9 weeks were provided. […] After 24 hours, blood sampling was performed for each mouse from the abdominal aorta under anesthesia with ether, and the collected blood were placed into plastic test tubes being placed with a blood separating agent beforehand, then after 30 min. or 1 hour, the blood sampled was centrifuged at 10,000 rpm to obtain the serum. Total cholesterol value, HDL cholesterol value and total triglyceride value in the serum were respectively measured by using the measuring kits and automatic biochemical analyser.

cholesterol biosynthesis = assay: In vivo inhibition test on cholesterol biosynthesis in mice; set-up: species or system mouse (Crj:ICR-strain); conditions: n = 5, 30 mg/kg oral; for 14C-Cholesterol in serum: control group 3783 (for 1-71), 5694 (for 2-64, 2-71, 2-72); for Inhibition Rate on cholesterol biosynthesis: vs control group
Experimental: In Vivo Inhibition Test on Cholesterol Biosynthesis
For this test, Crj:ICR-strain male mice aged 7-9 weeks were provided. The mice were fed with a diet containing 2% cholestyramine for 7 to 10 days under reversed lighting condition, namely the mice were placed in dark condition during 7:00 AM to 7:00 PM. Each of the test compounds was dissolved or suspended in either distillated water or 1% aqueous solution of poly(oxyethylene) curing castor oil and was orally administrated to the mice at a dose of 30 mg/kg at 10:30 AM, respectively. After 1 hour following to the administration of the test compound, the mice were intraperitoneally administrated with ^14 C-sodium acetate at a dose of 5 μCi/0.5 ml/mouse, respectively. After 2 hours, blood sampling was performed for each mouse from the abdominal aorta under anesthesia with ether and the blood sampled were placed into plastic test tubes being placed with blood separating agent beforehand to separate the serum, respectively. Each 0.5 ml of the serum was then added with 1 ml of 20% ethanol solution of potassium hydroxide and heated for 3 hours at 75° C. After extracting the unsponified substance with n-hexane, the serum was condensed to the dry hard state and dissolved in small amount of a mixed solution of chloroform and methanol (mixing ratio; 1:2). The resultant chloroform-methanol solution was then spotted on pre-coated silica gel TLC and developed with a mixed solution of benzene and ethyl acetate (mixing ratio; 9:1). The cholesterol spot was then taken out and the radio-activity thereof was measured by using a liquid scintillation counter. Based on the radio-activity measured, the inhibition rate on cholesterol biosynthesis were determined respectively for the compounds of the present invention.

[2] = tested on: biosynthesis of cholesterol; assay: Inhibitory effect on biosynthesis of cholesterol in cell-free biosystem; format: biochemical, rat (SD-strain); conditions: cell-free rat liver enzyme system, 90 min, 37° C., pH 7.4; read-out: 50% Inhibitory Concentration (IC50), cholesterol biosynthesis
Experimental: Inhibitory Effect on Biosynthesis of Cholesterol in Cell-free Biosystem
(1) Preparation of Enzyme Reaction System
The preparation of the enzymatic system for the biosynthesis of cholesterol in rats was carried out according to the method described in Biochimica et Biophysica Acta, Vol.486, pp 70-81, 1977.
More particularly, SD-strain female rats weighing from […] were fed for 7 to 10 days with a diet containing 2% cholestyramine to enhance their biosynthetic activity of cholesterol. After killed the rats by means of depletion of blood in midnight, the livers thereof were removed and homogenized with a double volume of 0.1 M potassium phosphate buffer solution (pH 7.4) containing 15 mM nicotine amide and 2 mM magnesium chloride by using a loose fitting-type teflon homogenizer. The supernatant obtained by centrifuging the homogenate at 12,000×g for 30 min. was further centrifuged at 105,000×g for 90 min., thereby separating it to the microsome fraction and the supernatant fraction. The supernatant obtained were kept as the fraction resulting in the precipitation in 40-80% ammonium sulfate (hereinafter referred to as "soluble fraction"). Each of the soluble fraction and the microsome fraction were independently adjusted with 0.1 M potassium phosphate buffer solution (pH 7.4) to the volumes of 1 ml/g of liver and 1 ml/3 g of liver, respectively, and were kept and used in the subsequent tests as an enzyme solution for the mixing ratio of 16:1.
(2) Method for Measuring Cholesterol Biosynthesis Activity
Cholesterol biosynthesis activity was measured according to the method described in Biochimica Biophysica Acta, Vol.486, pp 70-81, 1977. 2 μl dimethylsulfoxide solution of the test compound were added to a solution composed of 50 μl of the enzyme solution prepared in (1) described above, 0.1 M potassium phosphate buffer solution (pH 7.4), 1 mM ATP, 5 mM glucose-1-phosphate, 6 mM glutathione, 6 mM magnesium chloride, 0.04 mM coenzyme A, 0.25 mM NAD, 0.25 mM NADP and 1 mM 2-^14 C-sodium acetate (111 MBq./mmol), and the resultant solution was adjusted to the whole volume of 0.2 ml and then allowed to a reaction for 90 min. at 37° C. while shaking. The reaction was then stopped by adding 1 ml of 15% ethanol solution of potassium hydroxide, and the solution was then heated for 1 hour at 75° C. After extracted unsaponificated products with hexane from the solution, the solution was then condensed and dried to the hard state and subsequently dissolved in small volume of a mixture of chloroform and methanol (mixing ratio; 1:2). The resultant chloroform-methanol solution was spotted on a pre-coated silica gel TLC plate, then developed with a developer composed of benzene and ethyl acetate (mixing ratio; 9:1). The cholesterol spot was then taken out from the plate, and the radient activity of the spot was measured by using a liquid scintillation counter. Based on the radio-activity measured, mthe 50% inhibitory concentration (IC50) of the compounds of the present invention were determined.

[3] = read-out: % Change of Serum Lipid to Control Group: HDL Cholesterole
[4] = read-out: % Change of Serum Lipid to Control Group: Total Cholesterole
[5] = read-out: % Change of Serum Lipid to Control Group: Total glyceride

Q: `O=S(=O)(CCCOc1ccc(-n2ccnc2)cc1)c1ccccc1` [Compound 1-71] was tested. Which change in vivo at 100 mg/kg [1, 3] did it give?
A: The change in vivo at 100 mg/kg was 82%.

Q: And the change in vivo at 100 mg/kg [1, 4]?
A: The change in vivo at 100 mg/kg was -23%.

Q: And the change in vivo at 100 mg/kg [1, 5]?
A: Its change in vivo at 100 mg/kg is -20%.

Q: What about the 14C-Cholesterol in serum (cholesterol biosynthesis) of the same compound?
A: Its 14C-Cholesterol in serum is 575 dpm/1 ml Serum.

Q: What about the “Inhibition Rate on cholesterol biosynthesis” value (cholesterol biosynthesis) of the same compound?
A: The value was 85%.

Q: What about the IC50 [2] of the same compound?
A: The IC50 was 2.4 µM.

Q: Which results are given for `c1ccc(SCCCOc2ccc(Cn3ccnc3)cc2)cc1` [Compound 2-64, 1-[4-(3-phenylthiopropyloxy)benzyl]imidazole]?
A: 14C-Cholesterol in serum (cholesterol biosynthesis): 460 dpm/1 ml Serum; Inhibition Rate on cholesterol biosynthesis (cholesterol biosynthesis): 92%; IC50 [2]: 6 µM

Q: Which results are given for `O=S(=O)(CCCOc1ccc(Cn2ccnc2)cc1)c1ccccc1` [Compound 2-71]?
A: change in vivo at 100 mg/kg [1, 3]: 60%; change in vivo at 100 mg/kg [1, 4]: -30%; change in vivo at 100 mg/kg [1, 5]: -21%; 14C-Cholesterol in serum (cholesterol biosynthesis): 73 dpm/1 ml Serum; Inhibition Rate on cholesterol biosynthesis (cholesterol biosynthesis): 99%

Q: How did the change in vivo at 100 mg/kg [1, 3] turn out when `c1ccc(OCCCOc2ccc(Cn3ccnc3)cc2)cc1` [Compound 2-72] was run?
A: The change in vivo at 100 mg/kg was 28%.

Q: And the change in vivo at 100 mg/kg [1, 4]?
A: The change in vivo at 100 mg/kg was -21%.

Q: And the change in vivo at 100 mg/kg [1, 5]?
A: Its change in vivo at 100 mg/kg is -29%.

Q: And the 14C-Cholesterol in serum (cholesterol biosynthesis)?
A: Its 14C-Cholesterol in serum is 3980 dpm/1 ml Serum.

Q: What about the “Inhibition Rate on cholesterol biosynthesis” value (cholesterol biosynthesis) of the same compound?
A: Its value is 30%.

Q: And the IC50 [2]?
A: Its IC50 is 6 µM.
